Test results reported in patent US8936807B2, “Use of the cathelicidin LL-37 and derivatives thereof for wound healing” (Lipopeptide AB, priority 2003, dated 2015).

Experiments:
Format in all cases: cell-based, human
HaCat cells [1] = test: Proliferation and viability of HaCat cells measured by mitochondrial activity (WST-1); conditions: EGF 1.7 nM, 10% serum, 48 h
Method: (§1) HaCat cells were used for these experiments. HaCat cells are an immortalized human keratinocyte cell line (Boukamp et al., J Cell Biol 106:761-771, 1988), which is suitable for experimental keratinocyte research. HaCat cells were cultured in medium (DMEM, +10% FCS and PEST). Both types of cell cultures were treated with synthetic, bioactive LL-37 (lot YS 5253). In addition a mixture of LL-37 (114 μg/ml) and CPL-Galactolipid (0.2%) in medium containing serum at either 2 or 10% was added to evaluate the capacity to increase proliferation and inhibit cytotoxicity. Cells were harvested at different time-points (24 h, 48 h, 72 h and 96 h) and counted by flowcytometry (Becton-Dickinson) and stained by Trypan-Blue to evaluate viability. […] Proliferation and viability were also ascertained by measuring mitochondrial activity (WST-1, Roche, Cook et al. Anal Biochem 179:1-7, 1989).

HaCat cells [2] = test: Proliferation of HaCat cells assessed by flowcytometry and Trypan-Blue; conditions: EGF 1.7 nM, 10% serum
Method: as §1, with “In addition a mixture of LL-37 (114 μg/ml) and CPL-Galactolipid (0.2%) in medium containing serum at either 2 or 10% was added to evaluate the capacity to increase proliferation and inhibit cytotoxicity.” left out

HaCat cells [3] = test: Proliferation of HaCat cells assessed by 3H-Thymidine incorporation; conditions: 10% serum, 96 Hours; for Increased Proliferation (%): vs control 0 μg/ml
Method: HaCat cells were cultured in medium (DMEM, +10% FCS and PEST). HaCaT cells were plated in 96 well plates (Falcon, USA) at the concentration of 2000 cells per well. Cells were plated at −48 hours and stimulated with different concen-trations of synthetic LL-37, LL-36, and LL-38 peptide by hour 0 and after 48 hours.
The testing was done in one experiment with 6 wells in each condition. […] of ^3H-Thymidine (THYMIDINE, [METHYL-^3H]-740.0 GBq/mmol (20.00 Ci/mmol) 1.0 ml of Ethanol:Water, 7:3, Perkin Elmer Life Sciences Inc. Boston Mass., USA) was added to each well and incubated for 12-17 hours. Proliferation was evaluated by ^3H-Thymidine incorporation a liquid scintilator (MicroBeta Perkin Elmer Life Sciences Inc. Boston Mass., USA) after 72 and 96 hours.

**Q.** “EGF: EGF, the golden standard for epithelial cell proliferation, used at 1.7 nM [reference compound]” was tested. Which Absorbance (HaCat cells [1]) did it give?
**A.** 1.107

**Q.** And the “Increased Proliferation (%)” value (HaCat cells [1]; vs baseline (-EGF))?
**A.** 77%

**Q.** And the “Number of Cells (Mean)” value (HaCat cells [2]; 96 h)?
**A.** 42000

**Q.** And the “Increased Proliferation (%)” value (HaCat cells [2]; 96 h, vs baseline (-EGF))?
**A.** 30%

**Q.** And the “Number of Cells (Mean)” value (HaCat cells [2]; no lipid, 72 h)?
**A.** 85050

**Q.** What about the “Increased Proliferation (%)” value (HaCat cells [2]; no lipid, 72 h, vs baseline) of the same substance?
**A.** 54%

**Q.** And the “Number of Cells (Mean)” value (HaCat cells [2]; with lipid 0.2%, 72 h)?
**A.** 87640

**Q.** What about the “Increased Proliferation (%)” value (HaCat cells [2]; with lipid 0.2%, 72 h, vs baseline) of the same substance?
**A.** 58%

**Q.** “LLGDFFRKSKEKIGKEFKRIVQRIKDFLRNLVPRTE (Synthetic Peptide LL-36)” was tested. Which “Counts Per Minute (Mean)” value (HaCat cells [3]; LL-36 1.00 μg/ml) did it give?
**A.** 86253 Counts Per Minute

**Q.** And the “Increased Proliferation (%)” value (HaCat cells [3]; LL-36 1.00 μg/ml)?
**A.** 24%

**Q.** What about the “Counts Per Minute (Mean)” value (HaCat cells [3]; LL-36 5.00 μg/ml) of the same substance?
**A.** 116381 Counts Per Minute

**Q.** What about the “Increased Proliferation (%)” value (HaCat cells [3]; LL-36 5.00 μg/ml) of the same substance?
**A.** 68%

**Q.** And the “Counts Per Minute (Mean)” value (HaCat cells [3]; LL-36 10.00 μg/ml)?
**A.** 70157 Counts Per Minute

**Q.** And the “Increased Proliferation (%)” value (HaCat cells [3]; LL-36 10.00 μg/ml)?
**A.** 1%

**Q.** And the “Counts Per Minute (Mean)” value (HaCat cells [3]; LL-36 25.00 μg/ml)?
**A.** 72674 Counts Per Minute

**Q.** And the “Increased Proliferation (%)” value (HaCat cells [3]; LL-36 25.00 μg/ml)?
**A.** 5%

**Q.** And the “Counts Per Minute (Mean)” value (HaCat cells [3]; LL-36 50.00 μg/ml)?
**A.** 68560 Counts Per Minute

**Q.** What about the “Increased Proliferation (%)” value (HaCat cells [3]; LL-36 50.00 μg/ml) of the same substance?
**A.** -1%

**Q.** What does the source list for “LLGDFFRKSKEKIGKEFKRIVQRIKDFLRNLVPRTESS (Synthetic Peptide LL-38)”?
**A.** Counts Per Minute (Mean) (HaCat cells [3]; LL-38 1.00 μg/ml): 82008 Counts Per Minute; Increased Proliferation (%) (HaCat cells [3]; LL-38 1.00 μg/ml): 4%; Counts Per Minute (Mean) (HaCat cells [3]; LL-38 5.00 μg/ml): 68694 Counts Per Minute; Increased Proliferation (%) (HaCat cells [3]; LL-38 5.00 μg/ml): −13%; Counts Per Minute (Mean) (HaCat cells [3]; LL-38 10.00 μg/ml): 57293 Counts Per Minute; Increased Proliferation (%) (HaCat cells [3]; LL-38 10.00 μg/ml): −28%; Counts Per Minute (Mean) (HaCat cells [3]; LL-38 25.00 μg/ml): 54294 Counts Per Minute; Increased Proliferation (%) (HaCat cells [3]; LL-38 25.00 μg/ml): −31%; Counts Per Minute (Mean) (HaCat cells [3]; LL-38 50.00 μg/ml): 48701 Counts Per Minute; Increased Proliferation (%) (HaCat cells [3]; LL-38 50.00 μg/ml): −39%
